# Results as given in US20120270237A9, “METHODS FOR THE IDENTIFICATION OF KINASE INTERACTING MOLECULES AND FOR THE PURIFICATION OF KINASE PROTEINS” (Cellzone AG, priority 2009, published 2012).
# Tests used:
# ULK3 = biological target: T1, ULK3 (Homo sapiens, UniProt Q6PHR2); assay: Kinobeads competition binding, HeLa Placenta lysate mix; parameters: kinases from mixed HeLa placenta lysates; endogenous in cells; host or cells: mixed lysate of HeLa cells and placenta tissue; conditions: 10 μM free compound
# T1 sequence (Q6PHR2 1-472): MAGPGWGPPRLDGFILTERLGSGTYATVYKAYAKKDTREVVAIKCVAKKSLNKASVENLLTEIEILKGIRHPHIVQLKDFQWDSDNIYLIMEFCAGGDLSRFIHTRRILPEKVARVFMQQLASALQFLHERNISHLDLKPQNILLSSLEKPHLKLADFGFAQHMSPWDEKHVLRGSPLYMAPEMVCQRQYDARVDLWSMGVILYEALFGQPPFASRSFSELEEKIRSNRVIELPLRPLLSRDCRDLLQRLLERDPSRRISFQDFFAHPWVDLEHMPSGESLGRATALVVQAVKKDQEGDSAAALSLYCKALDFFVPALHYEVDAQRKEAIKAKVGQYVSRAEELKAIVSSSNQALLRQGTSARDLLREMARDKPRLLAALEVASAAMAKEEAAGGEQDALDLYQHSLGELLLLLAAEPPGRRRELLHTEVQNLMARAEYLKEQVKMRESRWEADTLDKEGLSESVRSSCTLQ
# Description: To one aliquot of cell lysate 10 μM of the free compound (FIG. 3, CZC31326) was added and allowed to bind to proteins in the lysate. Then the affinity matrix with the immobilized compound was added to capture proteins that were not interacting with the previously added free compound. Beads were separated from the lysate and bead bound proteins were eluted in SDS sample buffer and subsequently separated by SDS-Polyacrylamide gel electrophoresis (FIG. 10). Suitable gel bands were cut out and subjected to in-gel proteolytic digestion with trypsin. The second lysate aliquot was processed identically, however no free compound was added (DMSO solvent control). Peptides originating from samples 1 and 2 were labeled with iTRAQ reagents (iTRAQ 114 and iTRAQ 117) and the combined samples were analyzed with a nano-flow liquid chromatography system coupled online to a tandem mass spectrometer (LC-MS/MS) experiment followed by iTRAQ reporter ion quantification in the MS/MS spectra as described in Example 2.
# IRAK1 = IRAK1 (Homo sapiens, UniProt P51617); assay: Competition binding assay in HL60 cell lysate, antibody detection; parameters: endogenous in cells; host or cells: HL60; conditions: dose response curve, anti-IRAK1 antibody
# Chain of IRAK1 (P51617 whole entry): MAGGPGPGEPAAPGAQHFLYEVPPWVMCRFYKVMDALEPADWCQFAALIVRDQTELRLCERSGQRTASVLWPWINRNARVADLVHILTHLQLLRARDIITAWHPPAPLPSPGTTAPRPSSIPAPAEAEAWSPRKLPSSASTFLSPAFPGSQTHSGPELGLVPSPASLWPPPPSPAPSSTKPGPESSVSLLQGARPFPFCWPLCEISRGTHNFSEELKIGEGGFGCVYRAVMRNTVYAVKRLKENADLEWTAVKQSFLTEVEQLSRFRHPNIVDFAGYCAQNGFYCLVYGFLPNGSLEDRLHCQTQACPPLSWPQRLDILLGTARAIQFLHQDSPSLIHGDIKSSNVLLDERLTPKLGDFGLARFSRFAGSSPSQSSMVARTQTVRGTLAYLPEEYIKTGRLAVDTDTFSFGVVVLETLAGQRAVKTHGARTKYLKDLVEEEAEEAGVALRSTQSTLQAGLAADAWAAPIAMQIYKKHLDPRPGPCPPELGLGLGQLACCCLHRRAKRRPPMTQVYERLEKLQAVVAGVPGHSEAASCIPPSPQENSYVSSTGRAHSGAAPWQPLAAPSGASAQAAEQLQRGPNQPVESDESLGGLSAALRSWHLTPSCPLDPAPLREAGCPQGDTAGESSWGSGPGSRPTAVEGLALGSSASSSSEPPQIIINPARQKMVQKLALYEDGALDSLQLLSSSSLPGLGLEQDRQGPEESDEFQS
# Description: (§1) The experiment was performed as described in example 7. The test compound (or DMSO as solvent control) and diluted cell lysate were added to the affinity matrix and incubated for two hours at 4° C. After washing, captured proteins were eluted with SDS-containing sample buffer. After spotting of eluate samples onto Nitrocellulose membranes IRAK1 was detected with an anti-IRAK1 antibody and IRAK4 with anti-IRAK4 antibody followed by incubation with a secondary fluorescently labeled detection antibody.
# (§2) Various concentrations of test compounds were added to HL60 lysate samples and allowed to bind to the proteins contained in the lysate sample. At the same time the affinity matrix with the immobilized compound (FIG. 3, CZC31326) was added as well in order to capture proteins not bound to the test compound. After the incubation time the beads with captured proteins were separated from the lysate. Bound proteins were then eluted and the presence of IRAK1 and IRAK4 was detected and quantitavely determined using specific antibodies and the Odyssey Infrared Detection system. […]
# (§3) The kinases in the eluates were detected and quantified by spotting on Nitrocellulose membranes and using a first antibody directed against the kinase of interest and a fluorescently labeled secondary antibody (anti-mouse or anti-rabbit IRDye™ antibodies from Rockland). […]
# IRAK4 = biological target: T2, IRAK4 (Homo sapiens, UniProt Q9NWZ3); assay: as above; parameters: endogenous in cells; host or cells: HL60; conditions: dose response curve, anti-IRAK4 antibody
# T2 sequence (Q9NWZ3 1-460): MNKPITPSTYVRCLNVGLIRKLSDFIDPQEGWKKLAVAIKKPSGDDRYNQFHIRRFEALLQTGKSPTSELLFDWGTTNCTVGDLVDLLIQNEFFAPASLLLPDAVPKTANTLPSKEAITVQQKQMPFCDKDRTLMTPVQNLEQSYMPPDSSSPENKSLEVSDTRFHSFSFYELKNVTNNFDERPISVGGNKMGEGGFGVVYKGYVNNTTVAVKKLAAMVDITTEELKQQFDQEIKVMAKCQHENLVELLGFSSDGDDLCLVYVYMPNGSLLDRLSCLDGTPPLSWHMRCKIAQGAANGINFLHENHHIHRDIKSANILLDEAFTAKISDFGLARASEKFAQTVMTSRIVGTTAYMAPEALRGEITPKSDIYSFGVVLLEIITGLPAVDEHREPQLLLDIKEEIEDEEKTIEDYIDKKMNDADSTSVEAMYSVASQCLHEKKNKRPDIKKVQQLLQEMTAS
# Description: as §1, §2, §3
smiles,measurement,setting,value
"CS(=O)(=O)Nc1ccccc1Nc1nc(Nc2cccc(OCCN)c2)ncc1Cl [CZC31326, N-(2-(2-(3-(2-aminoethoxy)phenylamino)-5-chloropyrimidin-4-ylamino)phenyl)methanesulfonamide]",Competition %,ULK3,94.6%
same,IC50,IRAK1,150 nM
same,IC50,IRAK4,40 nM
